pKi: −log10 of the molar value.
Target: human phosphoglucose isomerase (hPGI) / autocrine motility factor (Homo sapiens, UniProt P06744)
Test: end-point isomerization kinetics
Assay type: biochemical

O=C(O)[C@H](O)[C@@H](O)[C@H](O)[C@H](O)COP(=O)(O)O [6P-GA, 6-phosphogluconate]
pKi: 4.92

— paper PMC5668625 (Biochemistry and Biophysics Reports, 2015)
